From ChEMBL document CHEMBL1147193, “New 5-substituted thiazolo[3,2-b][1,2,4]triazol-6-ones: synthesis and anticancer evaluation” (2007)
One block for each compound: values may come before it.

Key:
Format in all cases: functional
OVCAR-4 = assay: Growth inhibition of human OVCAR4 cells after 48 hrs by SRB protein assay; details: OVCAR-4, 48 h; for TGI: read-out: Log TGI (converted)
A498 = assay: Growth inhibition of human A498 cells after 48 hrs by SRB protein assay; details: A498, 48 h; for TGI: read-out: Log TGI (converted)
NCI-H23 = assay: Growth inhibition of human NCI-H23 cells after 48 hrs by SRB protein assay; details: NCI-H23, 48 h; for TGI: read-out: Log TGI (converted)
MCF7 = assay: Anticancer activity against human MCF7 cells assessed as growth of cells at 100 uM relative to untreated cells
MOLT-4 = assay: Growth inhibition of human MOLT4 cells after 48 hrs by SRB protein assay; details: MOLT-4, 48 h; for TGI: read-out: Log TGI (converted)
HOP-92 = assay: Growth inhibition of human HOP92 cells after 48 hrs by SRB protein assay; details: HOP-92, 48 h; for TGI: read-out: Log TGI (converted)
NCI-H322M = assay: Growth inhibition of human NCI-H322M cells after 48 hrs by SRB protein assay; details: for TGI: read-out: Log TGI (converted)
NCI-H460 = assay: Growth inhibition of human NCI-H460 cells after 48 hrs by SRB protein assay; details: NCI-H460, 48 h; for TGI: read-out: Log TGI (converted)
COLO 205 = assay: Growth inhibition of human COLO205 cells after 48 hrs by SRB protein assay; details: COLO 205, 48 h; for TGI: read-out: Log TGI (converted)
HCT-116 = assay: Growth inhibition of human HCT116 cells after 48 hrs by SRB protein assay; details: HCT-116, 48 h; for TGI: read-out: Log TGI (converted)
HT-29 = assay: Growth inhibition of human HT29 cells after 48 hrs by SRB protein assay; details: HT-29, 48 h; for TGI: read-out: Log TGI (converted)
SF-539 = assay: Growth inhibition of human SF539 cells after 48 hrs by SRB protein assay; details: SF-539, 48 h; for TGI: read-out: Log TGI (converted)
SNB-19 = assay: Growth inhibition of human SNB19 cells after 48 hrs by SRB protein assay; details: SNB-19, 48 h; for TGI: read-out: Log TGI (converted)
U-251 = assay: Growth inhibition of human U251 cells after 48 hrs by SRB protein assay; details: U-251, 48 h; for TGI: read-out: Log TGI (converted)
[1] = Growth inhibition of human MALME 3M cells after 48 hrs by SRB protein assay; details: for TGI: read-out: Log TGI (converted)
UACC-257 = assay: Growth inhibition of human UACC257 cells after 48 hrs by SRB protein assay; details: UACC-257, 48 h; for TGI: read-out: Log TGI (converted)
TK-10 = assay: Growth inhibition of human TK10 cells after 48 hrs by SRB protein assay; details: TK-10, 48 h; for TGI: read-out: Log TGI (converted)
DU-145 = assay: Growth inhibition of human DU145 cells after 48 hrs by SRB protein assay; details: DU-145, 48 h; for TGI: read-out: Log TGI (converted)
MDA-MB-435 = assay: Growth inhibition of human MDA-MB-435 cells after 48 hrs by SRB protein assay; details: MDA-MB-435, 48 h; for TGI: read-out: Log TGI (converted)
SNB-75 = assay: Growth inhibition of human SNB75 cells after 48 hrs by SRB protein assay; details: SNB-75, 48 h; for TGI: read-out: Log TGI (converted)
HL-60 = assay: Growth inhibition of human HL60 cells after 48 hrs by SRB protein assay; details: HL-60, 48 h
SR = assay: Growth inhibition of human SR cells after 48 hrs by SRB protein assay

- GI50 (OVCAR-4): 31.6 µM
- GI50 (NCI-H23): 23.4 µM
- GI50 (MOLT-4): 20 µM
- GI50 (NCI-H322M): > 100 µM
- GI50 (NCI-H460): > 100 µM
- GI50 (COLO 205): 19.5 µM
- GI50 (HCT-116): 20 µM
- GI50 (HT-29): 28.8 µM
- GI50 (U-251): 18.2 µM
- GI50 (DU-145): > 100 µM
- GI50 (MDA-MB-435): 55 µM
Compound: O=C(CC1Sc2ncnn2C1=O)Nc1ccc(Cl)cc1 (centres undefined)
- TGI (OVCAR-4): 83.2 µM
- GI50 (A498): > 100 µM
- TGI (A498): > 100 µM
- TGI (NCI-H23): 70.8 µM
- Activity (MCF7): 0%
- TGI (MOLT-4): 47.9 µM
- GI50 (HOP-92): 25.1 µM
- TGI (HOP-92): 64.6 µM
- TGI (NCI-H322M): > 100 µM
- TGI (NCI-H460): > 100 µM
- TGI (COLO 205): 47.9 µM
- TGI (HCT-116): 30.9 µM
- TGI (HT-29): 75.9 µM
- GI50 (SF-539): 31.6 µM
- TGI (SF-539): 74.1 µM
- GI50 (SNB-19): > 100 µM
- TGI (SNB-19): > 100 µM
- TGI (U-251): 33.9 µM
- GI50 [1]: 14.8 µM
- TGI [1]: 38.9 µM
- GI50 (UACC-257): 40.7 µM
- TGI (UACC-257): > 100 µM
- GI50 (TK-10): 20.9 µM
- TGI (TK-10): 39.8 µM
- TGI (DU-145): > 100 µM
- TGI (MDA-MB-435): > 100 µM

- GI50 (OVCAR-4): > 100 µM
- GI50 (NCI-H23): 0.115 µM
- GI50 (NCI-H322M): > 100 µM
- GI50 (NCI-H460): 35.5 µM
- GI50 (COLO 205): 25.7 µM
- GI50 (HCT-116): 32.4 µM
- GI50 (HT-29): > 100 µM
- GI50 (U-251): > 100 µM
- GI50 (MDA-MB-435): 41.7 µM
Compound: O=C(CC1Sc2ncnn2C1=O)Nc1ccccc1 (centres undefined)
- TGI (OVCAR-4): > 100 µM
- TGI (NCI-H23): 9.12 µM
- Activity (MCF7): 0%
- GI50 (HOP-92): 25.1 µM
- TGI (HOP-92): 66.1 µM
- TGI (NCI-H322M): > 100 µM
- TGI (NCI-H460): > 100 µM
- TGI (COLO 205): 79.4 µM
- TGI (HCT-116): > 100 µM
- TGI (HT-29): > 100 µM
- GI50 (SNB-19): > 100 µM
- TGI (SNB-19): > 100 µM
- GI50 (SNB-75): 31.6 µM
- TGI (SNB-75): 85.1 µM
- TGI (U-251): > 100 µM
- GI50 [1]: 19.1 µM
- TGI [1]: 44.7 µM
- GI50 (UACC-257): 40.7 µM
- TGI (UACC-257): > 100 µM
- GI50 (TK-10): 19.1 µM
- TGI (TK-10): 39.8 µM
- TGI (MDA-MB-435): > 100 µM

- GI50 (OVCAR-4): 34.7 µM
- GI50 (HL-60): 6.46 µM
- GI50 (MOLT-4): 38.9 µM
- GI50 (NCI-H322M): > 100 µM
- GI50 (NCI-H460): 61.7 µM
- GI50 (COLO 205): 61.7 µM
- GI50 (HCT-116): 33.9 µM
- GI50 (HT-29): 45.7 µM
- GI50 (U-251): 60.3 µM
- GI50 (DU-145): 39.8 µM
- GI50 (MDA-MB-435): 37.2 µM
Compound: O=c1/c(=C/c2ccc(F)cc2)sc2ncnn12
- TGI (OVCAR-4): > 100 µM
- GI50 (A498): 61.7 µM
- TGI (A498): > 100 µM
- Activity (MCF7): 77%
- TGI (HL-60; read-out: Log TGI (converted)): > 100 µM
- TGI (MOLT-4): > 100 µM
- GI50 (SR): 15.5 µM
- TGI (SR; read-out: Log TGI (converted)): > 100 µM
- GI50 (HOP-92): 47.9 µM
- TGI (HOP-92): > 100 µM
- TGI (NCI-H322M): > 100 µM
- TGI (NCI-H460): > 100 µM
- TGI (COLO 205): > 100 µM
- TGI (HCT-116): > 100 µM
- TGI (HT-29): > 100 µM
- GI50 (SF-539): 30.2 µM
- TGI (SF-539): 93.3 µM
- GI50 (SNB-19): 63.1 µM
- TGI (SNB-19): > 100 µM
- GI50 (SNB-75): 58.9 µM
- TGI (SNB-75): > 100 µM
- TGI (U-251): > 100 µM
- GI50 [1]: > 100 µM
- TGI [1]: > 100 µM
- GI50 (UACC-257): 95.5 µM
- TGI (UACC-257): > 100 µM
- GI50 (TK-10): > 100 µM
- TGI (TK-10): > 100 µM
- TGI (DU-145): > 100 µM
- TGI (MDA-MB-435): > 100 µM
